From US20230174488A1 (priority 2020, published 2023)

Biological target: SARS-CoV-2 M^PRO (Severe acute respiratory syndrome coronavirus 2, UniProt P0DTD1)
Assay: biochemical
Format: biochemical
Details: In vitro potency data; 30 min pre-incubation, 25 nM M^pro, 25 µM substrate; read-out: IC50

Going from `O=C(NC1CCCCC1)C(c1cccnc1)N(Cc1cccc(C(F)(F)F)c1)C(=O)CCl` (stereo not shown) [INSCoV-574, 2-Chloro-N-(2-(Cyclohexylamino)-2-Oxo-1-(Pyridin-3-yl)Ethyl)-N-(3-(Trifluoromethyl)Benzyl)Acetamide] to `O=C(NC1CCCCC1)C(c1cccnc1)N(CCc1cccc(F)c1)C(=O)CCl` (stereo not shown) [INSCoV-558, 2-Chloro-N-(2-(Cyclohexylamino)-2-Oxo-1-(Pyridin-3-yl)Ethyl)-N-(3-Fluorophenethyl)Acetamide], the IC50 falls from 1270 nM to 330 nM (3.8-fold).

First: Cc1ccc(S(=O)(=O)C(C)NC(=O)C(c2cccnc2)N(C(=O)CCl)c2ccc(C(C)(C)C)cc2)cc1 (stereo not shown) [INSCoV-531]
Second: CC(C)(C)NC(=O)C(c1cccnc1)N(C(=O)CCl)c1ccc(C(C)(C)C)cc1 (stereo not shown) [INSCoV-534, N-(Tert-Butyl)-2-(N-(4-(Tert-Butyl)Phenyl)-2-Chloroacetamido)-2-(Pyridin-3-yl)Acetamide]
The IC50 of the first is 9.9-fold higher: 12700 nM for the first, 1280 nM for the second.

First: CC(C)(C)c1ccc(N(C(=O)CCl)C(C(=O)NC2CCCCC2)c2cccnc2)cc1 (single isomer, unassigned) [INSCoV-110A(2), 2-(4-tert-butyl-N-(2-chloroacetyl)anilino)-N-cyclohexyl-2-(3-pyridyl)acetamide]
Second: CC(C)(C)c1ccc(N(C(=O)CCl)C(C(=O)NC2CCCCC2)c2cncc(O)c2)cc1 (stereo not shown) [INSCoV-535, N-(4-(Tert-Butyl)Phenyl)-2-Chloro-N-(2-(Cyclohexylamino)-1-(5-Hydroxypyridin-3-yl)-2-Oxoethyl)Acetamide]
The IC50 of the first is 2.1-fold higher: 2150 nM for the first, 1040 nM for the second. The second is the more potent here.

Going from `N#CCC(=O)N(c1ccc(-c2cncs2)cc1)[C@H](C(=O)NC1CCC(F)(F)CC1)c1cncnc1` [INSCoV-612] to `O=C(NC1CCC(F)(F)CC1)[C@H](c1cncnc1)N(C(=O)[C@H](F)Cl)c1ccc(-c2cncs2)cc1` (single isomer, unassigned) [INSCoV-614(1A), 2-Chloro-N-(2-((4,4-difluorocyclohexyl)amino)-2-oxo-1-(pyrimidin-5-yl)ethyl)-2-fluoro-N-(4-(thiazol-5-yl)phenyl)acetamide], the IC50 rises from 23200 nM to over 25000 nM.

`CCS(=O)(=O)N1CCC(NC(=O)C(c2cnccn2)N(C(=O)CCl)c2ccc(-c3cnco3)cc2)CC1` (stereo not shown) [INSCoV-501R(1), 2-Chloro-N-(2-((1-(Ethylsulfonyl)Piperidin-4-yl)Amino)-2-Oxo-1-(Pyrazin-2-yl)Ethyl)-N-(4-(Oxazol-5-yl)Phenyl)Acetamide] and `O=C(NC1CCN(S(=O)(=O)C2CC2)CC1)C(c1cncnc1)N(C(=O)CCl)c1ccc(-c2cnco2)cc1` (stereo not shown) [INSCoV-501H] are within 1.5-fold of each other in IC50: 570 nM for the first, 720 nM for the second.

`O=C(NC1CCC(F)(F)CC1)C(c1cncnc1)N(CCc1cccc(F)c1)C(=O)C1CO1` (stereo not shown) [INSCoV-600Q] and `C=C(F)C(=O)N(c1ccc(-c2cncs2)cc1)C(C(=O)NC1CCC(F)(F)CC1)c1cncnc1` (stereo not shown) [INSCoV-616] are within 1.5-fold of each other in IC50: 6980 nM for the first, 8360 nM for the second.

Compared with `Cc1cc(-c2cnco2)ccc1N(C(=O)CCl)C(C(=O)NC1CCCCC1)c1cncnc1` (stereo not shown) [INSCoV-501G], `O=C(NC1CCCCC1)C(c1cccnc1)N(C(=O)CCl)c1ccc(-c2cnco2)cc1` (stereo not shown) [INSCoV-501] is 2.6-fold higher in IC50: 260 nM for the first, 680 nM for the second. The first is the more potent here.

`O=C(NC1CCC(F)(F)CC1)C(c1ccnnc1)N(C(=O)CCl)c1ccc(-c2ccno2)cc1` (stereo not shown) [INSCoV-537K, 2-Chloro-N-(2-((4,4-Difluorocyclohexyl)Amino)-2-Oxo-1-(Pyridazin-4-yl)Ethyl)-N-(4-(Isoxazol-5-yl)Phenyl)Acetamide] and `O=C(NC1CCC(F)(F)CC1)C(c1ccnnc1)N(C(=O)CCl)c1ccc(-c2cnco2)cc1` (stereo not shown) [INSCoV-537I, 2-Chloro-N-(2-((4,4-Difluorocyclohexyl)Amino)-2-Oxo-1-(Pyridazin-4-yl)Ethyl)-N-(4-(Oxazol-5-yl)Phenyl)Acetamide] are within 1.5-fold of each other in IC50: 360 nM for the first, 270 nM for the second.

Going from `O=C(NC1CCCCC1)C(c1cccnc1)N(C(=O)CCl)c1ccc2ccoc2c1` (stereo not shown) [INSCoV-576, 2-[Benzofuran-6-yl-(2-chloroacetyl)amino]-N-cyclohexyl-2-(3-pyridyl)acetamide] to `CC(C)(C)c1ccc(N(C(=O)CCl)C(C(=O)NC2CCCCC2)c2cccnc2)cc1` (stereo not shown) [INSCoV-110A, 2-(4-tert-butyl-N-(2-chloroacetyl)anilino)-N-cyclohexyl-2-(3-pyridyl)acetamide], the IC50 falls from 4670 nM to 1140 nM (4.1-fold). The second is the more potent here.

First: O=C(N[C@@H]1CCOC1)[C@H](c1cncnc1)N(C(=O)CCl)c1ccc(-c2cnco2)cc1 [INSCoV-600C(2A)]
Second: O=C(N[C@@H]1CCOC1)[C@@H](c1cncnc1)N(C(=O)CCl)c1ccc(-c2cnco2)cc1 [INSCoV-600C(2B)]
The IC50 of the first is 2.8-fold higher: 450 nM for the first, 160 nM for the second.

Going from `Cc1ccccc1CCN(C(=O)CCl)C(C(=O)NC1CCCCC1)c1cccnc1` (stereo not shown) [INSCoV-503A] to `COc1ccccc1CCN(C(=O)CCl)C(C(=O)NC1CCCCC1)c1cccnc1` (stereo not shown) [INSCoV-560A, 2-Chloro-N-(2-(Cyclohexylamino)-2-Oxo-1-(Pyridin-3-yl)Ethyl)-N-(2-Methoxyphenethyl)Acetamide], the IC50 rises from 2630 nM to 4340 nM (1.7-fold).

Going from `O=C(NC1CC2(COC2)C1)C(c1cncnc1)N(C(=O)CCl)c1ccc(-c2cnco2)cc1` (stereo not shown) [INSCoV-600G] to `O=C(NC1CC(F)(F)C1)C(c1cncnc1)N(C(=O)CCl)c1ccc(-c2cnco2)cc1` (stereo not shown) [INSCoV-600D], the IC50 falls from 990 nM to 520 nM (1.9-fold). The second is the more potent here.

Compared with `O=C(NC1CCC(F)(F)CC1)[C@H](c1cnccn1)N(C(=O)CCl)c1ccc(-c2ccno2)cc1` (racemic) [INSCoV-601H, 2-Chloro-N-(2-((4,4-difluorocyclohexyl)amino)-2-oxo-1-(pyrazin-2-yl)ethyl)-N-(4-(isoxazol-5-yl)phenyl)acetamide], `O=C(NC1CCC(F)(F)CC1)[C@H](c1cncnc1)N(C(=O)CCl)c1ccc(-c2ccns2)cc1` is 1.9-fold higher in IC50: 100 nM for the first, 190 nM for the second. The first is the more potent here.

First: Cc1cc(-c2cccnc2)cc(F)c1NC(=O)C(c1cncnc1)N(C(=O)CCl)c1ccc(-c2cnco2)cc1 (stereo not shown) [INSCoV-600X]
Second: O=C(NC1CCOCC1)C(c1cccnc1)N(C(=O)CCl)c1ccc(-c2cnco2)cc1 (stereo not shown) [INSCoV-600A(1), 2-Chloro-N-(4-(Oxazol-5-yl)Phenyl)-N-(2-Oxo-1-(Pyridin-3-yl)-2-((Tetrahydro-2H-Pyran-4-yl)Amino)Ethyl)Acetamide]
The IC50 of the first is 1.7-fold higher: 1390 nM for the first, 840 nM for the second. The second is the more potent here.

First: O=C(NC1CCOCC1)C(c1ccnnc1)N(C(=O)CCl)c1ccc(-c2cnco2)cc1 (stereo not shown) [INSCoV-600A]
Second: CC(C)(C)c1ccc(N(C(=O)CCl)C(C(=O)NC2CCCCC2)c2c[nH]c3ncccc23)cc1 (stereo not shown) [INSCoV-549]
The IC50 of the first is 4.6-fold lower: 540 nM for the first, 2490 nM for the second.

First: O=C(NC1CCCCC1)C(c1cccnc1)N(CCc1ccc(Cl)cc1)C(=O)CCl (stereo not shown) [INSCoV-503F]
Second: C=CS(=O)(=O)N(c1ccc(C(C)(C)C)cc1)[C@@H](C(=O)NC1CCCCC1)c1cccnc1 [INSCoV-110-1]
The IC50 of the first is 38-fold lower: 940 nM for the first, 36000 nM for the second.

Compared with `N#Cc1cc(OC(F)(F)F)ccc1N(C(=O)C(F)Cl)C(C(=O)NC1CCC(F)(F)CC1)c1cncnc1` (mixture of isomers) [INSCoV-517C, 2-Chloro-N-(2-cyano-4-(trifluoromethoxy)phenyl)-N-(2-((4,4-difluorocyclohexyl)amino)-2-oxo-1-(pyrimidin-5-yl)ethyl)-2-fluoroacetamide], `N#Cc1cc(OC(F)(F)F)ccc1N(C(=O)[C@H](F)Cl)[C@@H](C(=O)NC1CCC(F)(F)CC1)c1cncnc1` (single isomer, unassigned) [INSCoV-517C(4), 2-Chloro-N-(2-cyano-4-(trifluoromethoxy)phenyl)-N-(2-((4,4-difluorocyclohexyl)amino)-2-oxo-1-(pyrimidin-5-yl)ethyl)-2-fluoroacetamide] is higher in IC50: 110 nM for the first, over 25000 nM for the second. The first is the more potent here.
